Key:
Test in all cases: Minimum inhibitory concentration (MIC) and checkerboard assay
Type in all cases: cell-based
Details in all cases: unit assumed
[1] = tested on: Candida albicans (ATCC 10231)
From the text: (§1) Escherichia coli (ATCC 8739), Staphylococcus aureus (ATCC 6538), P. aeruginosa (ATCC 9027), Candida albicans (ATCC 10231), and Aspergillus brasiliensis (ATCC 16404) were obtained from ATCC and cultured according to the manufacturer's instructions. These microorganisms are routinely used for minimum inhibitory concentration (MIC), checkerboards and challenge tests according to the US and EU recommendations for the efficacy of preservatives in the cosmetic industry. Bacterial strains were maintained in tryptic soy agar (TSA) (Hy-labs, Rehovot, Israel), while yeast and mold strains were maintained in sabouraud dextrose agar (SDA) (Hy-labs, Israel), supplemented with oxytetracycline at a concentration of 1% (Hy-labs, Israel). […] Briefly, growth of E. coli, S. aureus, P. aeruginosa, P. gergoviea, B. cepacia, C. albicans, and A. brasiliensis was observed during incubation with two-fold serial dilutions of the abovementioned compounds in Mueller Hinton (MH) broth, using a 96-well plate (BIOFUL, Israel). For the checkerboard assay using a 96-well plate, decreasing concentrations of one compound were added from top to bottom of the plate using serial dilutions. Decreasing concentrations of the second compound were added to the plate from the right, having the highest concentration, to the left side of the plate with the lowest concentration. […] Bacteria inoculated plates were incubated for 24 h at 32° C. with shaking, while fungi inoculated plates were incubated at 23° C. for 48-72 h with shaking. Microorganism growth was evaluated by a spectrophotometer O.D. reads (BioTek, Israel). In additional exemplary procedure, MIC evaluation test with Candida albicans was performed in test tubes. Growth in this case is visually evaluated. A pure culture of a single microorganism was grown in Tryptic soy broth, or Sabouraud dextrose broth for yeast and mold. […] While the MIC is defined as the lowest concentration of molecule alone or in combination that inhibited visible growth, the in vitro interactions can be quantified as FICI and calculated using the following formula: […]

[2] = tested on: P. aeruginosa (ATCC 9027)
From the text: (§2) Escherichia coli (ATCC 8739), Staphylococcus aureus (ATCC 6538), P. aeruginosa (ATCC 9027), Candida albicans (ATCC 10231), and Aspergillus brasiliensis (ATCC 16404) were obtained from ATCC and cultured according to the manufacturer's instructions. These microorganisms are routinely used for minimum inhibitory concentration (MIC), checkerboards and challenge tests according to the US and EU recommendations for the efficacy of preservatives in the cosmetic industry. Bacterial strains were maintained in tryptic soy agar (TSA) (Hy-labs, Rehovot, Israel), while yeast and mold strains were maintained in sabouraud dextrose agar (SDA) (Hy-labs, Israel), supplemented with oxytetracycline at a concentration of 1% (Hy-labs, Israel). […] Briefly, growth of E. coli, S. aureus, P. aeruginosa, P. gergoviea, B. cepacia, C. albicans, and A. brasiliensis was observed during incubation with two-fold serial dilutions of the abovementioned compounds in Mueller Hinton (MH) broth, using a 96-well plate (BIOFUL, Israel). For the checkerboard assay using a 96-well plate, decreasing concentrations of one compound were added from top to bottom of the plate using serial dilutions. Decreasing concentrations of the second compound were added to the plate from the right, having the highest concentration, to the left side of the plate with the lowest concentration. […] Bacteria inoculated plates were incubated for 24 h at 32° C. with shaking, while fungi inoculated plates were incubated at 23° C. for 48-72 h with shaking. Microorganism growth was evaluated by a spectrophotometer O.D. reads (BioTek, Israel). The culture is standardized using standard microbiological techniques to have a concentration of very near 1 million cells per milliliter. The antimicrobial agent is diluted a number of times, with Tryptic soy broth or Sabouraud broth for fungi. After the antimicrobial agent had been diluted, a volume of the standardized inoculums was added to each dilution vessel, bringing the microbial concentration to approximately 1,000,000 cells per milliliter. The inoculated, serially diluted antimicrobial agent was incubated at an appropriate temperature for the test organism, 24 hours for bacteria 48 for yeast and 72 for mold. […] The microorganism strains used for the test were E. coli ATCC 8739, P. aeruginosa ATCC 9027, S. aureus ATCC 6538, C. albicans ATCC 10231, A. brasiliensis ATCC 16404. Measuring synergy between preservatives can be done by the widely described Fractional Inhibitory Concentration Index (FICI). While the MIC is defined as the lowest concentration of molecule alone or in combination that inhibited visible growth, the in vitro interactions can be quantified as FICI and calculated using the following formula: […]

[3] = tested on: Staphylococcus aureus (ATCC 6538)
From the text: as §2

[4] = tested on: Escherichia coli (ATCC 8739)
From the text: as §2

[5] = tested on: Aspergillus brasiliensis (ATCC 16404)
From the text: as §1, with “In another” for “In additional”, “with A. brasiliensis” for “with Candida albicans”, “Sabouraud” for “Sabouraud dextrose”

MIC C. albicans [1] [mg/L]	MIC P. aeruginosa [2] [mg/L]	MIC S. aureus [3] [mg/L]	MIC E. coli [4] [mg/L]	MIC A. brasiliensis [5] [mg/L]	Compound
2500	> 5000	2500	5000	1250	CCCCC(CC)COCC(O)CO (stereo not drawn) [EHG, ethylhexylglycerin]
1880	1250	5000	5000	1250	Cc1occc(=O)c1O [Maltol, maltol]

Compound	MIC C. albicans [1] [mg/L]	MIC P. aeruginosa [2] [mg/L]	MIC S. aureus [3] [mg/L]	MIC E. coli [4] [mg/L]	MIC A. brasiliensis [5] [mg/L]
CC(=O)[O-].CC(=O)[O-].[Zn+2] [Zinc Acetate, zinc acetate]	110	312	160	312	100

— patent US20240298646A1, “ANTIBIOFILM PRESERVATIVE COMPOSITIONS” (SHARON PERSONAL CARE LTD., priority 2021, published 2024)
